Measurements from patent publication US8927579B2, “Male contraceptive” (priority 2007, dated 2015).
Where a name gives a salt, the structure may show the parent alone.

Tests used:
[1] = tested on: circular muscle of human vas deferens; assay: New molecules against contractions to high K+ (120 mM), circular muscle; conditions: contractions evoked by K+ (120 mM), preliminary data, mean, n=2-3, read-out: Functional inhibitory potencies (IC50 values), Circular muscle
Source text: (§1) Human vas deferens specimens were obtained after elective vasectomies of healthy fertile men. College ethical approval and the consent of patients were obtained. The specimens were placed in ice-cold Krebs' medium, dissected-free of connective tissue/blood vessels and cut longitudinally into strips (longitudinal muscle preparations; 5-8 mm long & 1 mm wide) or transversely into rings (circular muscle preparations; ˜3 mm in length). The longitudinal and circular muscle preparations were then set up for tension recording (resting tension 5-7 mN) in a Perspex chamber superfused at 2 ml per min with Krebs' medium (36° C.) composed of (mM): NaCl, 118.8; NaHCO3, 25; KCl, 4.7; CaCl2.2H2O, 2.5; KH2PO4, 1.2; MgSO4.7H2O, 1.2; glucose, 11.1; ascorbic acid 0.1 and continuously gassed with 95% O2 and 5% CO2. Contractile responses were recorded via a Harvard type force-displacement transducer. The analog signals were digitised using CIO-Das 16/Jr data acquisition software (Amplicon Liveline, Brighton, UK) and re-plotted on a microcomputer.
(§2) Tissues were equilibrated for 180 min in Krebs' medium containing inhibitors of extraneuronal and neuronal reuptake of noradrenaline, oestradiol (1 μM) and desipramine (0.1 μM) respectively, inhibitors of catechol-O-methyltransferase and monoamine oxidase, tropolone (10 μM) and iproniazid (10 μM) respectively and the β-adrenoceptor blocker, propranolol (1 μM). At the end of the equilibration period, the tissues were stimulated with noradrenaline (100 μM). […] After 40-45 min in this medium the tissues were stimulated with high [K^+]O (120 mM, Initial response). This was followed by exposure to cumulative concentrations of the new molecules {NIBA(1)XC1, NIBA(14)XN10, NIBA(6)XN3, NIBA(2)XC2, NIBA(53)XN16} or to Krebs' medium containing drug vehicles (time-matched controls). After contact times of 40-60 min at each drug concentration, the tissues were stimulated with high [K^+]o (120 mM). The resulting contractions were measured using computer software developed in-house to measure the total response (i.e. rhythmic activity plus tonic contraction). Contractions obtained in the presence of the new drug molecules were expressed as a percentage of the initial contraction evoked by high [K^+]o (120 mM) before exposure to the drugs.

[2] = tested on: longitudinal muscle of human vas deferens; assay: New molecules against contractions to high K+ (120 mM), longitudinal muscle; conditions: for IC50: Homo sapiens, contractions evoked by K+ (120 mM), preliminary data, mean, n=2-3, read-out: Functional inhibitory potencies (IC50 values), Longitudinal muscle; for Selectivity [(C/L)-1]: longitudinal muscle selectivity from IC50 values in circular and longitudinal muscle, K+ (120 mM)
Source text: as §1, §2

[3] = tested on: sperm emission in patients; conditions: cited from earlier work
[4] = tested on: longitudinal muscle of human vas deferens; assay: IC50 against contractions evoked by high K+ (120 mM) in the presence of FPL 64176, longitudinal muscle strips; conditions: contractions evoked by K+ (120 mM) in the presence of FPL 64176 (1 μM), means ± S.E.M.
Source text: as §1, with “5-10” for “5-8”, “3” for “˜3”, “Harvard-type” for “Harvard type”
(§3) Tissues were equilibrated for 180 min in Krebs' medium containing inhibitors of extraneuronal and neuronal reuptake of noradrenaline, oestradiol (1 μM) and desipramine (0.1 μM) respectively, inhibitors of catechol-O-methyltransferase and monoamine oxidase, tropolone (10 μM) and iproniazid (10 μM) respectively and the β-adrenoceptor blocker, propranolol (1 μM). At the end of the equilibration period, the tissues were stimulated with noradrenaline (100 μM). […] After a contact time of 30-40 min in this medium, different experimental protocols (described below) were adopted in order to • (a) Elucidate the contractile actions of L-type Ca^2+ agonists such as FPL 64176 or Bay K 8644. In these experiments, tissues were exposed to FPL 64176 (0.1-10 μM added cumulatively) or in separate experiments Bay K 8644 (0.1-10 μM added cumulatively). • (b) Investigate the effects of various diphenylalkylamines and conventional L-type Ca^2+ antagonists (methoxyverapamil or nifedipine) on contractions evoked by high concentrations of extracellular potassium (high [K^+]o) in the presence of L-type Ca^2+ agonists, FPL 64176 (1 μM) or Bay K 8644 (1 μM). In this protocol, tissues were stimulated with high [K^+]O (10, 30 and 120 mM at 10-15 min intervals) in normal Krebs' medium, then exposed to L-type Ca^2+ agonists for 20-30 min and subsequently stimulated with high [K^+]O (10, 30 and 120 mM) in the presence of the drugs. These provided the initial responses. Following this and in the continuous presence of the L-type Ca^2+ agonists, the tissues were exposed additionally to L-type Ca^2+ antagonists (conventional or diphenylalkylamines) or drug-free vehicle medium. After contact times of 25-50 min the tissues were stimulated, first with high [K^+]O (either 30 mM or 120 mM) in order to take account of the well-documented use-dependent action of the diphenylalkylamine Ca^2+ antagonists. Following recovery from the test contraction and after a further 30-40 min, the tissues were then stimulated with high [K^+]o (10, 30 and 120 mM). This protocol is illustrated in FIGS. 3 and 4. The resulting contractions were measured (see below) and expressed as a percentage of corresponding initial responses to high [K^+]o evoked in the presence of L-type Ca^2+ agonists (i.e. before exposure to L-type Ca^2+ antagonists). […] Subsequent analysis (see below) was between contractions of drug-treated tissues and time-matched controls • (c) Determine the inhibitory potencies (IC50 values) of various diphenylalkylamines and phenothiazines and conventional L-type Ca^2+ antagonists (nifedipine and methoxyverapamil) against contractions evoked in longitudinal and circular muscle of human vas deferens by high [K^+]o (120 mM) in the presence of FPL 64176. In these experiments, tissues were stimulated with high [K^+]o (120 mM); sequentially in normal Krebs' medium and after 25-30 min exposure to the L-type Ca^2+ agonist, FPL 64176, (1 μM, Initial response). […]

[5] = tested on: circular muscle of human vas deferens; assay: Inhibition at fixed concentration of contractions evoked by high K+ in the presence of FPL 64176, circular muscle; conditions: [K+]o 120 mM in the presence of FPL 64176
Source text: as §1, with “5-10” for “5-8”, “3” for “˜3”, “Harvard-type” for “Harvard type”
(§4) Tissues were equilibrated for 180 min in Krebs' medium containing inhibitors of extraneuronal and neuronal reuptake of noradrenaline, oestradiol (1 μM) and desipramine (0.1 μM) respectively, inhibitors of catechol-O-methyltransferase and monoamine oxidase, tropolone (10 μM) and iproniazid (10 μM) respectively and the β-adrenoceptor blocker, propranolol (1 μM). At the end of the equilibration period, the tissues were stimulated with noradrenaline (100 μM). […] After a contact time of 30-40 min in this medium, different experimental protocols (described below) were adopted in order to • (a) Elucidate the contractile actions of L-type Ca^2+ agonists such as FPL 64176 or Bay K 8644. In these experiments, tissues were exposed to FPL 64176 (0.1-10 μM added cumulatively) or in separate experiments Bay K 8644 (0.1-10 μM added cumulatively). • (b) Investigate the effects of various diphenylalkylamines and conventional L-type Ca^2+ antagonists (methoxyverapamil or nifedipine) on contractions evoked by high concentrations of extracellular potassium (high [K^+]o) in the presence of L-type Ca^2+ agonists, FPL 64176 (1 μM) or Bay K 8644 (1 μM). In this protocol, tissues were stimulated with high [K^+]O (10, 30 and 120 mM at 10-15 min intervals) in normal Krebs' medium, then exposed to L-type Ca^2+ agonists for 20-30 min and subsequently stimulated with high [K^+]O (10, 30 and 120 mM) in the presence of the drugs. These provided the initial responses. Following this and in the continuous presence of the L-type Ca^2+ agonists, the tissues were exposed additionally to L-type Ca^2+ antagonists (conventional or diphenylalkylamines) or drug-free vehicle medium. After contact times of 25-50 min the tissues were stimulated, first with high [K^+]O (either 30 mM or 120 mM) in order to take account of the well-documented use-dependent action of the diphenylalkylamine Ca^2+ antagonists. Following recovery from the test contraction and after a further 30-40 min, the tissues were then stimulated with high [K^+]o (10, 30 and 120 mM). This protocol is illustrated in FIGS. 3 and 4. The resulting contractions were measured (see below) and expressed as a percentage of corresponding initial responses to high [K^+]o evoked in the presence of L-type Ca^2+ agonists (i.e. before exposure to L-type Ca^2+ antagonists). […]

[6] = tested on: longitudinal muscle of human vas deferens; assay: Inhibition at fixed concentration of contractions evoked by high K+ in the presence of FPL 64176, longitudinal muscle; conditions: [K+]o 120 mM in the presence of FPL 64176
Source text: as §1, with “5-10” for “5-8”, “3” for “˜3”, “Harvard-type” for “Harvard type”
as §4, with “Following this and in the continuous presence of the L-type Ca^2+ agonists, the tissues were exposed additionally to L-type Ca^2+ antagonists (conventional or diphenylalkylamines) or drug-free vehicle medium. After contact times of 25-50 min the tissues were stimulated, first with high [K^+]O (either 30 mM or 120 mM) in order to take account of the well-documented use-dependent action of the diphenylalkylamine Ca^2+ antagonists. Following recovery from the test contraction and after a further 30-40 min, the tissues were then stimulated with high [K^+]o (10, 30 and 120 mM). This protocol is illustrated in FIGS. 3 and 4.” left out

[7] = tested on: circular muscle of human vas deferens; assay: IC50 against contractions evoked by high K+ (120 mM) in the presence of FPL 64176, circular muscle rings; conditions: contractions evoked by K+ (120 mM) in the presence of FPL 64176 (1 μM), means ± S.E.M.
Source text: as §1, with “5-10” for “5-8”, “3” for “˜3”, “Harvard-type” for “Harvard type”
as §3

For `CC(NCCN(c1ccccc1)c1ccccc1)c1ccccc1` (centres unmarked) [NIBA(14)XN10], the IC50 [1] was 91 µM, the IC50 [2] was 15 µM and the “relative effectiveness against longitudinal and circular muscle contractions” value ([2]; contractions evoked by high [K+]o) was “more effective against longitudinal than circular muscle contractions”. The “Selectivity [(C/L)-1]” value [2] was 5.1.
In the case of `CN1CCCC1CCN(c1ccccc1)c1ccccc1` (centres unmarked) [NIBA(53)XN16], the IC50 [1] is reported as 11 µM, the IC50 [2] is reported as 4.5 µM and the “Selectivity [(C/L)-1]” value [2] is reported as 1.4.
For `CC(COc1ccccc1)N(CCCl)Cc1ccccc1` (centres unmarked) [PBZ, phenoxybenzamine], the “effect on sperm emission (contraceptive side effect)” value ([3]; clinical studies) is listed as “reversibly inhibit sperm emission” and the “effects on libido, erection, orgasmic sensation, blood pressure, hormonal balance” value ([3]; clinical studies) is listed as “without effects on libido, penile erection, orgasmic sensation and more importantly blood pressure or hormonal balance”.
With `O=c1[nH]c2ccccc2n1C1CCN(CCCC(c2ccc(F)cc2)c2ccc(F)cc2)CC1` [Pimozide, pimozide] the IC50 ([4]; Homo sapiens) was 4.4 ± 0.6 µM, the inhibition at 10 µM ([5]; Homo sapiens, drug 10 μM) was 55% and the inhibition at 10 µM ([6]; Homo sapiens, drug 10 μM) was 71%. It also gave an IC50 ([7]; Homo sapiens) of 8.9 ± 3.1 µM.
Work on `CN1CCCCC1CCN1c2ccccc2Sc2ccc(S(C)(=O)=O)cc21` (centres unmarked) [Sulphoridazine, sulphoridazine] yielded an IC50 [4] of 15.9 ± 2.9 µM and an IC50 [7] of 14.1 ± 4.9 µM.
In the case of `CSc1ccc2c(c1)N(CCC1CCCCN1C)c1ccccc1S2` (centres unmarked) [Thioridazine, thioridazine hydrochloride], the “time to inhibition of sperm emission after drug administration” value ([3]; even at sub therapeutic doses) is given as at most 24 h.
In the case of `CN1CCN(CCCN2c3ccccc3Sc3ccc(C(F)(F)F)cc32)CC1` [Trifluoperazine, trifluoperazine dihydrochloride], the IC50 ([4]; Homo sapiens) is listed as 20.7 ± 5.4 µM, the IC50 ([7]; Homo sapiens) is listed as 10.2 ± 3 µM and the “effect on sperm emission (contraceptive side effect)” value ([3]; clinical studies) is listed as “lack the contraceptive side-effect”.
For (−)-methoxyverapamil hydrochloride, the IC50 [4] was 0.016 ± 0.0009 µM, the “inhibition of circular muscle contractions” value ([5]; drug 1.0 μM) was 93-98% and the “inhibition of longitudinal muscle contractions” value ([6]; drug 1.0 μM) was 93-98%. The IC50 [7] was 0.0181 ± 0.0038 µM.
